From patent publication US20050137130A1, “Medical treatment” (priority 2001, published 2005)

System: Mouse CD4+T-cells
Test: ELISA assay for Notch signalling modulator activity in mouse CD4+ cells (IL-10, plate-bound hDelta1-IgG4Fc)
Type: cell-based
Details: all concentrations tested, added at start of culture, day 3
Method: Spleens were removed from female Balb/c mice 8-10 weeks old and passed through a […] cell strainer into 20 ml R10F medium (R10F-RPMI 1640 media (Gibco Cat No 22409) plus 2 mM L-glutamine, 50 μg/ml Penicillin, 50 μg/ml Streptomycin, 5×10^−5 M β-mercapto-ethanol in 10% fetal calf serum). The cell suspension was spun (1150 rpm 5 min) and the media removed.
The cells were incubated for 4 minutes with 5 ml ACK lysis buffer (0.15M NH4Cl, […], O. 1 mM Na2EDTA in double distilled water) per spleen (to lyse red blood cells). The cells were then washed once with R10F medium and counted. CD4+ cells were purified from the suspensions by positive selection on a Magnetic Associated Cell Sorter (MACS) column (Miltenyi Biotec, Bisley, UK: Cat No 130-042-401) using CD4 (L3T4) beads (Miltenyi Biotec Cat No 130-049-201), according to the manufacturer's directions. […]
Mouse CD4+T-cells (prepared as above) were cultured at 2×10^5/well on anti-CD3 coated plates with or without plate-bound hDelta1-IgG4Fc fusion protein (prepared as described above) and soluble anti-CD28. […] Soluble hDelta1-IgG4Fc fusion protein was added into culture at the start at the concentrations shown and IL-10 was measured in supernatants on day 3 by ELISA using antibody pairs from R & D Systems (Abingdon, UK).

## hDelta1-IgG4Fc: fusion protein comprising the extracellular domain of human Delta1 fused to the Fc domain of human IgG4 (SEQ ID NO: 5)
  effect of soluble protein on increased IL-10 release induced by plate-bound hDelta1-IgG4Fc: substantially reversed
